Experimental data reported in patent publication US7196117B2, “Use of cationic surfactant as activity enhancer in deodorants and oral care” (Laboratorios Miret, S.A., priority 2001, dated 2007).

How the values were obtained:
toxicological studies = type: in vivo; settings: animals and humans
metabolism in rats = type: in vivo

Compound: CCCCCCCCCCCC(=O)N[C@@H](CCCN=C(N)N)C(=O)OCC.Cl [LAE, ethyl ester of the lauramide of the arginine monohydrochloride]
- toxicity (toxicological studies): completely harmless to animals and humans
- absorption and metabolism (metabolism in rats): fast absorption and metabolism into naturally-occurring amino acids and the fatty acid lauric acid
